Data on five compounds can be found in patent US20110206685A1, “SCREENING ASSAYS FOR INHIBITORS OF A STAPHYLOCOCCUS AUREUS SIDEROPHORE” (priority 2004, published 2011).

Holding throughout (type): cell-based, Staphylococcus aureus
In one assay the test system is sbnB::Tet mutant. The conditions noted are these: iron-restricted media / serum. An excerpt:
SbnB encodes a putative ornithine cyclodeaminase and may work in concert with SbnA to produce L-2,3-diaminopropionic acid, a likely precursor for staphylobactin. Ornithine cyclodeaminases mediate the deamination of ornithine and cyclization to proline and depended on NAD+. A mutation in sbnB was created by insertion of a Tet cassette. […] While proline is unlikely to be a siderophore precursor, ammonia may be a desired product for staphylobactin biosynthesis. […] Further, we observed in a mouse kidney abscess experiment, sbnB deficient strains were compromised for virulence (data not shown, n=7 mice).

Assay [1] concerns sbnD mutant and wild type strains. Kind of assay: MIC comparison of sbnD mutant and wild type strains. The conditions noted are these: sbnD::Km mutant versus wild type. An excerpt: SbnD encodes a putative multi-drug efflux pump. A mutation in sbnD was created by insertion of a Km cassette.
A further assay deals with S. aureus RN6390. Kind of assay: Siderophore plate bioassay (promotion of iron-restricted growth). To be noted: HPLC-isolated peak from culture supernatant of RN6390 fur::Km; TMS medium with 20 μM EDDHA. Here is the method:
The ability of siderophores to promote the iron-restricted growth of S. aureus was assessed using siderophore plate bioassays, performed as previously described (Sebulsky et al., (2000) J. Bacteriol. 182:4394-4400). Briefly, S. aureus RN6390 was incorporated into solid TMS medium (1.4×10^4 cells/ml) containing 20 μM EDDHA. The ability of purified siderophores to promote growth of S. aureus was assessed after incubation of plates for 36 hours at 37° C.

In the case of `NCC(N)C(=O)O` (centres unmarked) [diaminopropionic acid], the “rescue of the iron-restricted growth phenotype of the sbnB mutant by added compound” value in the assay on sbnB::Tet mutant was “can be overcome”.
As to `CCn1cc(C(=O)O)c(=O)c2ccc(C)nc21` [nalidixic acid], in assay [1], the “difference in MIC (minimum inhibitory concentration) values between sbnD mutant and wild type strains” value was “No difference”.
On to `CCn1cc(C(=O)O)c(=O)c2cc(F)c(N3CCNCC3)cc21` [norfloxacin], for which the “difference in MIC (minimum inhibitory concentration) values between sbnD mutant and wild type strains” value in assay [1] was “No difference”.
With `O=C(O)[C@@H]1CCCN1` [proline], the “rescue of the iron-restricted growth phenotype of the sbnB mutant by added compound” value with sbnB::Tet mutant is “does not bypass the sbnB mutation”.
Turning to staphylobactin, the “biological activity in siderophore plate bioassays (promotion of iron-restricted growth of S. aureus)” value in the assay on S. aureus RN6390 is listed as “retained biological activity”.
